Key:
Assay type in all cases: cell-based
virus HIV-1 [1] = experiment: Duration of action: pretreatment of U1 cells with the product before stimulation by TNF, PMA or GM-CSF + IL-6, reverse transcriptase production (second series)
From the text: (§1) On utilise des lignées cellulaires U1 obtenues après infection de la lignée promonocytaire, U937, par le virus HIV-1 et sélectionnée le selon la capacité à augmenter la production virale en réponse au Phorbol My- ristate Acétate (PMA), au TNF et à d'autres médiateurs [Folks et al., Science, 238, 800 (1987)]. L'activité de la reverse transcriptase est utilisée comme un indicateur de la production virale. On analyse ainsi l'effet de concentrations croissantes du produit à étudier sur des lignées cellulaires stimulées.
Les cultures cellulaires sont prélévées en phase de croissance exponantielle et remises en culture à raison d'une concentration finale de 2x105 cellules/ml, en présence de différentes concentrations du produit à étudier. […] Chaque essai est fait en double, excepté les contrôles qui sont faits en quadruple. Chaque jour suivant, une fraction de surnageant des cultures est prélevée, et congelée en vue de la mesure de la reverse transcriptase. Les cellules sont nourries si nécessaire, avec du milieu frais ne contenant ni produit à étudier, ni activateur.
(§2) La mesure de l'activité de la reverse transcriptase est faite par les techniques connues, en double exemplaire [Strebel et al., Nature, 328, 728 (1987)].
Dans une seconde série d'essais, la durée d'action du (+) (pyridyl-3)-3 1H,3H-pyrrolo[1,2-c]thiazolecarboxamide-7 a été testée.

cellules U1 = experiment: Viability of the U1 cells in presence of the product; settings: whatever the concentration used (0,1 to 100 µM)
Method: (§3) Les cultures cellulaires sont prélévées en phase de croissance exponantielle et remises en culture à raison d'une concentration finale de 2x105 cellules/ml, en présence de différentes concentrations du produit à étudier. 30 minutes après, l'ensemble des cultures est additionné de TNFa ou de GM-CSF (Granulocyte Macrophage Colony Stimulating Factor) plus 11-6 (Interleukine-6). Chaque essai est fait en double, excepté les contrôles qui sont faits en quadruple. Chaque jour suivant, une fraction de surnageant des cultures est prélevée, et congelée en vue de la mesure de la reverse transcriptase. Les cellules sont nourries si nécessaire, avec du milieu frais ne contenant ni produit à étudier, ni activateur.

virus HIV-1 [2] = experiment: Reverse transcriptase activity as indicator of viral production in chronically HIV-1 infected U1 cells stimulated with TNFa or GM-CSF + IL-6 (first series)
From the text: Les effets du (+) (pyridyl-3)-3 1H,3H-pyrrolo[1,2-c] thiazolecarboxamide-7 sur l'induction du virus HIV-1 ont été étudiés sur des lignées cellulaires chroniquement infectées.
as §1, §3, §2
Le (+) (pyridyl-3)-3 1 H,3H-pyrrolo[1,2-c]thiazole carboxamide-7 est étudié aux concentrations de 100, 10, 1 et 0,1 µM.
Le TNFa est additionné à raison de 100, 10 ou 1 Unités/ml. Le GM-CSF + 11-6 est additionné à raison de 100 U/mi. Certains contrôles ne recoivent pas l'activateur. D'autres contrôles ne reçoivent pas le produit à étudier. D'autres ne reçoivent ni le produit ni l'activateur.

NC(=O)c1ccn2c1CSC2c1cccnc1 (single isomer, unassigned; (+)) [produit, (+) (pyridyl-3)-3 1H,3H-pyrrolo[1,2-c]thiazole carboxamide-7]
Production de Reverse Transcriptase Coups par minute (cpm) (virus HIV-1 [1]; Tableau I, U1 cells + product 100µM, no stimulation, contact time 0,5 h): <100 cpm | Production de Reverse Transcriptase Coups par minute (cpm) (virus HIV-1 [1]; Tableau I, U1 cells + product 100µM, no stimulation, contact time 2 h): <100 cpm | Production de Reverse Transcriptase Coups par minute (cpm) (virus HIV-1 [1]; Tableau I, U1 cells + product 100µM, no stimulation, contact time 7 h): <100 cpm | Production de Reverse Transcriptase Coups par minute (cpm) (virus HIV-1 [1]; Tableau I, U1 cells + product 100µM, no stimulation, contact time 10 h): <100 cpm | Production de Reverse Transcriptase Coups par minute (cpm) (virus HIV-1 [1]; Tableau II, U1 cells + product 100µM, no stimulation, contact time 0,5 h): env.100 cpm | Production de Reverse Transcriptase Coups par minute (cpm) (virus HIV-1 [1]; Tableau II, U1 cells + product 100µM, no stimulation, contact time 2 h): env.100 cpm | Production de Reverse Transcriptase Coups par minute (cpm) (virus HIV-1 [1]; Tableau II, U1 cells + product 100µM, no stimulation, contact time 7 h): env.100 cpm | Production de Reverse Transcriptase Coups par minute (cpm) (virus HIV-1 [1]; Tableau II, U1 cells + product 100µM, no stimulation, contact time 10 h): <100 cpm | Production de Reverse Transcriptase Coups par minute (cpm) (virus HIV-1 [1]; Tableau III, U1 cells + product 100µM, no stimulation, contact time 0,5 h): 180 cpm | Production de Reverse Transcriptase Coups par minute (cpm) (virus HIV-1 [1]; Tableau III, U1 cells + product 100µM, no stimulation, contact time 2 h): 150 cpm | Production de Reverse Transcriptase Coups par minute (cpm) (virus HIV-1 [1]; Tableau III, U1 cells + product 100µM, no stimulation, contact time 7 h): 180 cpm | Production de Reverse Transcriptase Coups par minute (cpm) (virus HIV-1 [1]; Tableau III, U1 cells + product 100µM, no stimulation, contact time 10 h): 160 cpm | Production de Reverse Transcriptase Coups par minute (cpm) (virus HIV-1 [1]; U1 cells + product 100µM + GM-CSF (100U) + IL6 (100U), contact time before stimulation 0,5 h): 200 cpm | Production de Reverse Transcriptase Coups par minute (cpm) (virus HIV-1 [1]; U1 cells + product 100µM + GM-CSF (100U) + IL6 (100U), contact time before stimulation 2 h): 180 cpm | Production de Reverse Transcriptase Coups par minute (cpm) (virus HIV-1 [1]; U1 cells + product 100µM + GM-CSF (100U) + IL6 (100U), contact time before stimulation 7 h): 170 cpm | Production de Reverse Transcriptase Coups par minute (cpm) (virus HIV-1 [1]; U1 cells + product 100µM + GM-CSF (100U) + IL6 (100U), contact time before stimulation 10 h): 180 cpm | Production de Reverse Transcriptase Coups par minute (cpm) (virus HIV-1 [1]; U1 cells + product 100µM + PMA (10^-7), contact time before stimulation 0,5 h): 4700 cpm | Production de Reverse Transcriptase Coups par minute (cpm) (virus HIV-1 [1]; U1 cells + product 100µM + PMA (10^-7), contact time before stimulation 2 h): 1900 cpm | Production de Reverse Transcriptase Coups par minute (cpm) (virus HIV-1 [1]; U1 cells + product 100µM + PMA (10^-7), contact time before stimulation 7 h): 1900 cpm | Production de Reverse Transcriptase Coups par minute (cpm) (virus HIV-1 [1]; U1 cells + product 100µM + PMA (10^-7), contact time before stimulation 10 h): 900 cpm | Production de Reverse Transcriptase Coups par minute (cpm) (virus HIV-1 [1]; U1 cells + product 100µM + TNFα(100U), contact time before stimulation 0,5 h): 300 cpm | Production de Reverse Transcriptase Coups par minute (cpm) (virus HIV-1 [1]; U1 cells + product 100µM + TNFα(100U), contact time before stimulation 2 h): 200 cpm | Production de Reverse Transcriptase Coups par minute (cpm) (virus HIV-1 [1]; U1 cells + product 100µM + TNFα(100U), contact time before stimulation 7 h): 180 cpm | Production de Reverse Transcriptase Coups par minute (cpm) (virus HIV-1 [1]; U1 cells + product 100µM + TNFα(100U), contact time before stimulation 10 h): env.100 cpm | effet inhibiteur de la réplication du HIV-1 (virus HIV-1 [1]; pretreatment 30 minutes to 24 heures before stimulation by TNF, PMA or GM-CSF + II-6): n'affecte pas l'effet inhibiteur | viabilité des cellules (cellules U1): sans effet | inhibition at 100 µM (virus HIV-1 [2]; Human immunodeficiency virus 1, 72 h, U1 cells, 100 Unités/ml TNFa, day 3, product 10-^4M, read-out: diminution de l'activité de la reverse transcriptase): 84% | inhibition at 10 µM (virus HIV-1 [2]; Human immunodeficiency virus 1, 72 h, U1 cells, 100 Unités/ml TNFa, day 3, product 10^-5M, read-out: diminution de l'activité de la reverse transcriptase): 50% | diminution de la production virale (virus HIV-1 [2]; U1 cells treated with TNFa): significative et dose-dépendante | action inhibitrice du HIV-1 dans les cellules U1 (virus HIV-1 [2]; stimulated by GM-CSF + II-6): significative
